# Assay results: patent US20250144036A1, “COMPOUNDS AND COMPOSITIONS FOR DELIVERY OF THERAPEUTIC AGENTS” (ModernaTX, Inc., priority 2021, published 2025)
# Experiments:
# endothelial cells [1] = assay: Expression of mOX40L in endothelial cells following intravenous administration of loaded LNPs (flow cytometry of lung cells); assay type: in vivo, mice (Ail4); conditions: ionizable lipid/PEG lipid VI-4/PEG-DMG, 30 mol % cationic lipid or none, i.v., 24 h after dose
# Description: (§1) Reagents: Digestion Media: 3 mg/mL collagenase 1, 0.1 mg/mL DNase I, Dulbecco's Modified Eagle Medium (DMEM); Wash solution: Dulbecco's phosphate-buffered saline (DPBS)+0.5% Bovine Serum Albumin (BSA); FACS Buffer: Flow Cytometry Staining Buffer (eBioscience™, ThermoFisher Scientific).
# (§2) • CD31: General Endothelial Marker; • CD45: Leukocyte Common Marker; • mOX40L: Transmembrane Reporter; • tdTomato: Fluorescence Protein Reporter from Cre-mediated recombination in Ail4 mice.
# (§3) Six-week-old female mice (Ail4) were aged in-house to approximately 7-8 weeks of age. With an n=5 per group, Cre mRNA (i.e., mRNA leading to expression of tdTomato) formulated LNPs were intravenously dosed via the lateral tail vein 8 days before harvest. […] Collected data was analyzed using flow cytometry analysis software (FlowJo™).
# (§4) To assess the delivery of a therapeutic agent comprised in loaded LNPs of the disclosure to endothelial cells, the expression of Cre and mOX40L mRNA encapsulated in loaded LNPs of the disclosure was measured in endothelial cells following administration of the loaded LNPs to Ail4 mice as described in Example 3. […] The expression was evaluated in LNPs comprising 30 mol % of a cationic lipid of Formula (I) and in loaded LNPs not comprising the cationic of Formula (I) (i.e., LNPs not comprising a cationic lipid, or LNPs comprising dioleoyl-3-trimethylammonium propane (DOTAP)).
# endothelial cells [2] = assay: Expression of tdTomato (Cre mRNA) in endothelial cells following intravenous administration of loaded LNPs (flow cytometry of lung cells); assay type: in vivo, mice (Ail4); conditions: ionizable lipid/PEG lipid VI-4/PEG-DMG, 30 mol % cationic lipid or none, i.v., 8 days before harvest
# Description: as §1, §2, §3, §4
compound,measurement,setting,value
"CCCCCCCC/C=C\CCCCCCCC(=O)OCC(C[N+](C)(C)C)OC(=O)CCCCCCC/C=C\CCCCCCCC (centres unmarked) [DOTAP, dioleoyl-3-trimethylammonium propane]",% Endothelial cells Average,endothelial cells [1],0%
same,% Endothelial cells Average,endothelial cells [2],0%
